The structures appear in SMILES notation.

Chain of ADAMTS4 (O75173 213-685): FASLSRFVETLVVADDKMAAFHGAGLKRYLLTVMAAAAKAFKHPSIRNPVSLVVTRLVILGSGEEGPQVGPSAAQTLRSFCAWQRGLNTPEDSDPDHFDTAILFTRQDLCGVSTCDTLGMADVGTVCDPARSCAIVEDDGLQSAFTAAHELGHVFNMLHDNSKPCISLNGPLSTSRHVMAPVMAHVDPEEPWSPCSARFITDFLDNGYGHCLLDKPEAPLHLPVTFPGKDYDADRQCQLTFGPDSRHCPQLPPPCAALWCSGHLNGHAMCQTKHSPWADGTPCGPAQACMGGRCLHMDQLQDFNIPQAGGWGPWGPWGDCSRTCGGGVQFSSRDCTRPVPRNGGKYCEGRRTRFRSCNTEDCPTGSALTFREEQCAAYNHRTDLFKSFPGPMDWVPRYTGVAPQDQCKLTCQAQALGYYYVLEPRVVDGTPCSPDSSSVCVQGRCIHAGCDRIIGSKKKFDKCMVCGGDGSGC

The assay addresses ADAMTS4 (Homo sapiens (Human), UniProt O75173). As to the kind of experiment: Selectivity assay for ADAMTS-7 modulators: ADAMTS4 (FRET substrate). To be noted: ADAMTS4 (R&D 4307-AD) 50 nM, substrate Dabcyl-EEVKAKVQPY-Glu(Edans)-NH2 1 μM, 120 min, 32° C. Type of assay: biochemical. Summed up: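 Human ADAMTS4 with compound in DMSO, or DMSO control; reaction started by adding FRET substrate in reaction buffer. Fluorescence increase measured at substrate-specific wavelengths. IC50 derived from % inhibition of enzyme activity versus compound concentration.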
`Cc1ccc(C(=O)NC[C@@]2(C3CC3)NC(=O)NC2=O)c(-c2ccc(C(F)(F)F)cc2)c1C` [Example 145, N-{[(4R)-4-Cyclopropyl-2,5-Dioxoimidazolidin-4-Yl]Methyl}-5,6-Dimethyl-4′-(Trifluoromethyl)[1,1′-Biphenyl]-2-Carboxamide]: the concentration for half-maximal inhibition (IC50) (as a rule, the concentration needed to halve the response being measured) came to 2.8 µM. This counts as single-digit micromolar.
Compound `Cc1ccc(-c2ccccc2C(=O)NCC2(C(C)C)NC(=O)NC2=O)cc1` (racemic) [Example 204, Rac-N-[(4-Isopropyl-2,5-Dioxoimidazolidin-4-Yl)Methyl]-4′-Methyl[Biphenyl]-2-Carboxamide] came in with an IC50 of 22 µM. Compared with the last compound, the IC50 is about 7.9-fold higher.
Compound `Cc1c(C2(CNC(=O)c3ccc(F)c(F)c3-c3ccc(C(F)(F)F)cc3)NC(=O)NC2=O)cnn1C` (racemic) [Example 316, Rac-N-{[4-(1,5-Dimethyl-1H-Pyrazol-4-Yl)-2,5-Dioxoimidazolidin-4-Yl]Methyl}-5,6-Difluoro-4′-(Trifluoromethyl)[Biphenyl]-2-Carboxamide] registered a 50% inhibitory concentration (IC50) of 12 µM.
Turning to `O=C1NC(=O)[C@](CNC(=O)c2ccc(F)cc2-c2ccc(F)cc2)(C2CC2)N1` [Example 128, N-{[(4R)-4-Cyclopropyl-2,5-Dioxoimidazolidin-4-Yl]Methyl}-4′,5-Difluoro[Biphenyl]-2-Carboxamide], inhibition was half-maximal at 13 µM (IC50).
In turn, `Cc1c(C2(CNC(=O)c3ccc(F)cc3-c3ccc(C(F)(F)F)cc3)NC(=O)NC2=O)ncn1C` (racemic) [Example 304, Rac-N-{[4-(1,5-Dimethyl-1H-Imidazol-4-Yl)-2,5-Dioxoimidazolidin-4-Yl]Methyl}-5-Fluoro-4′-(Trifluoromethyl)[Biphenyl]-2-Carboxamide] returned a 50% inhibitory concentration (IC50) of 3.3 µM.
The value for `Cc1ccc(C(=O)NCC2(c3ncsc3C)NC(=O)NC2=O)c(-c2ccc(C(F)(F)F)cc2)c1` (racemic) [Example 167, Rac-5-Methyl-N-{[4-(5-Methyl-1,3-Thiazol-4-Yl)-2,5-Dioxoimidazolidin-4-Yl]Methyl}-4′-(Trifluoromethyl)[Biphenyl]-2-Carboxamide] was 4.4 µM; that for `O=C1NC(=O)[C@](CNC(=O)c2ccccc2-c2ccc(Cl)c(Cl)c2)(C2CC2)N1` [Example 227, 3′,4′-Dichloro-N-{[(4R)-4-Cyclopropyl-2,5-Dioxoimidazolidin-4-Yl]Methyl}[1,1′-Biphenyl]-2-Carboxamide] was 41 µM.
Regarding `CC(C)C1(CNC(=O)c2ccc(F)cc2-c2ccc(C(F)(F)F)cc2)NC(=O)NC1=O` (racemic) [Example 206, Rac-5-Fluoro-N-[(4-Isopropyl-2,5-Dioxoimidazolidin-4-Yl)Methyl]-4′-(Trifluoromethyl)[Biphenyl]-2-Carboxamide], the half-maximal inhibitory concentration (IC50) is more than 50 µM.
The value for `Cc1ccc(C(=O)NCC2(C(C)C)NC(=O)NC2=O)c(-c2ccc(C(F)(F)F)cc2)c1` (stereo not drawn) [Example 203, Ent-N-[(4-Isopropyl-2,5-Dioxoimidazolidin-4-Yl)Methyl]-5-Methyl-4′-(Trifluoromethyl)[Biphenyl]-2-Carboxamide] was 46 µM; that for `O=C1NC(=O)C(CNC(=O)c2ccc(F)c(F)c2-c2ccc(C(F)(F)F)cc2)(C23CC(F)(C2)C3)N1` (racemic) [Example 295, Rac-5,6-Difluoro-N-{[4-(3-Fluorobicyclo[1.1.1]Pentan-1-Yl)-2,5-Dioxoimidazolidin-4-Yl]Methyl}-4′-(Trifluoromethyl)[Biphenyl]-2-Carboxamide] was more than 50 µM.

Values taken from patent US12398120B2, “Substituted hydantoinamides as ADAMTS7 antagonists” (BAYER AKTIENGESELLSCHAFT, priority 2019, dated 2025).
